The text below walks through data of patent publication US6492365B1, “Microsomal triglyceride transfer protein” (Bristol-Myers Squibb Company, priority 1992, dated 2002).

Structures are written as SMILES. Structures can show the parent of a compound that is named as a salt.

This assay relates to apoB secretion from HepG2 cells. Kind of assay: ApoB secretion from HepG2 cells (ELISA of culture media). Type of assay: cell-based, human. As for the experimental part: HepG2 cells were treated with compound A at the indicated doses for 16 hours. The concentration in the cell culture media of apoB, apoAI and HSA after the incubation period was measured with the appropriate ELISA assay and normalized to total cell protein. The data shown are expressed as a percentage of the control (DMSO only).
HepG2 cells were treated with compound B at the indicated doses for 16 hours. The concentration in the cell culture media of apoB, apoAI and HSA after the incubation period was measured with the appropriate ELISA assay and normalized to total cell protein. The data shown are expressed as a percentage of the control (DMSO only).
The human hepatoblastoma cell line, HepG2, was obtained from the American Type Culture Collection (Rockville, Md.; ATCC accession no. 8065). […]
Experiments to measure the effects of compounds A and B on protein secretion were carried out in 48-well plates. […] Before commencement of drug treatment, culture medium was removed, the cells washed once with PBS and 1 mL of fresh medium was added quantitatively. […] The cells were homogenized by trituration with a 1 mL micropipettor, and protein was measured using the Coomassie reagent (Pierce Chemical Co, Rockford, Ill.) as described by the manufacturer. […]
(In general: ELISA stands for enzyme-linked immunosorbent assay.)

In general, IC50 refers to the concentration that gives 50% inhibition. For the compound `O=C1c2ccccc2CN1C1CCN(CCC(c2ccccc2)c2ccccc2)CC1` [compound A, 2-[1-(3,3-diphenylpropyl)-4-piperdinyl]-2,3-dihydro-3-oxo-1H-isoindole hydrochloride], the IC50 (Homo sapiens, 16-hour incubation, 0.156 to 20 μM, read-out: IC50 for inhibition of apoB secretion) was 5 µM. Take `COc1ccccc1N1CCN(CC2CC(=O)c3ccc(F)cc3C2)CC1` (centres unmarked) [compound B, 1-[3-(6-fluoro-1-tetralanyl)methyl]-4-O-methoxyphenyl piperazine]: under “result in words”, the “secretion of lipoproteins that contain apoB” value is on record as “inhibited”.
